We go through 28 compounds from ChEMBL document CHEMBL1146261, “Design of potent inhibitors of human beta-secretase. Part 2” (Bioorg Med Chem Lett, 2007).

T1 sequence (P56817 whole entry): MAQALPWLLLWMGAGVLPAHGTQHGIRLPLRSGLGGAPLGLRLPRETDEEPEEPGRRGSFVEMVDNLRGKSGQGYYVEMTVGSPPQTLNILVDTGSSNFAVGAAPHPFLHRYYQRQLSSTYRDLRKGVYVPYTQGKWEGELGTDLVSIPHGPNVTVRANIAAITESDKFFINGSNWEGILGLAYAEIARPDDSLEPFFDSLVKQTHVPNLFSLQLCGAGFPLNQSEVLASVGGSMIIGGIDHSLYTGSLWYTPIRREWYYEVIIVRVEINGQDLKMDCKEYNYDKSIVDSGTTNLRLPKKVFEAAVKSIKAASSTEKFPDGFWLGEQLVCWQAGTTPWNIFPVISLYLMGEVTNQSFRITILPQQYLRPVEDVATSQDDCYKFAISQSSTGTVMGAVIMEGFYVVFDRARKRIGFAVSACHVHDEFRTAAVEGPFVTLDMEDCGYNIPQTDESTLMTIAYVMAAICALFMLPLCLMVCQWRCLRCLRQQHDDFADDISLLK

One assay has as its target T1, Beta-secretase 1 (Homo sapiens, UniProt P56817). In words: Inhibition of BACE.
On to `CCCCS(=O)(=O)C[C@@H](NC(=O)COC)C(=O)N[C@@H](Cc1cc(F)cc(F)c1)[C@H](O)CNCc1cccc(CC)c1`, for which the IC50 was determined as 22 nM.

In turn, `CCCCS(=O)(=O)C[C@@H](NC(=O)OC)C(=O)N[C@@H](Cc1cc(F)cc(F)c1)[C@H](O)CNCc1cccc(CC)c1` came in with an IC50 of 4 nM.

For `CCCC(CCC)S(=O)(=O)C[C@@H](NC(=O)OCc1ccccc1)C(=O)N[C@@H](Cc1cc(F)cc(F)c1)[C@H](O)CNCc1cccc(CC)c1`, the IC50 came out at 3 nM.

`CCCC(CCC)S(=O)(=O)C[C@@H](NC(=O)c1ccccc1)C(=O)N[C@@H](Cc1cc(F)cc(F)c1)[C@H](O)CNCc1cccc(CC)c1` gave an IC50 of 495 nM.

In turn, `CCCCS(=O)(=O)C[C@@H](NC(=O)c1cnccn1)C(=O)N[C@@H](Cc1cc(F)cc(F)c1)[C@H](O)CNCc1cccc(CC)c1` yielded an IC50 of 4 nM.

In turn, `CCCCS(=O)(=O)C[C@@H](NC(=O)c1cnccc1O)C(=O)N[C@@H](Cc1cc(F)cc(F)c1)[C@H](O)CNCc1cccc(CC)c1` had an IC50 of 5 nM.

`CCCCS(=O)(=O)C[C@@H](NC(C)=O)C(=O)N[C@@H](Cc1cc(F)cc(F)c1)[C@H](O)CNCc1cccc(CC)c1`: the IC50 stood at 13 nM.

In turn, `CCCCS(=O)(=O)C[C@@H](NC(=O)OCc1ccncc1)C(=O)N[C@@H](Cc1cc(F)cc(F)c1)[C@H](O)CNCc1cccc(CC)c1` gave an IC50 of 11 nM.

In turn, `CCCC(CCC)S(=O)(=O)C[C@@H](NC(=O)OC)C(=O)N[C@@H](Cc1cc(F)cc(F)c1)[C@H](O)CNCc1cccc(CC)c1` displayed an IC50 of 3 nM.

With `CCCCS(=O)(=O)C[C@@H](NC(=O)C1CC1)C(=O)N[C@@H](Cc1cc(F)cc(F)c1)[C@H](O)CNCc1cccc(CC)c1`, the IC50 came to 10 nM.

`CCCCS(=O)(=O)C[C@@H](NC(=O)c1cc(C)n[nH]1)C(=O)N[C@@H](Cc1cc(F)cc(F)c1)[C@H](O)CNCc1cccc(CC)c1` came in with a half-maximal inhibitory concentration (IC50) of 4 nM.

Compound `CCCCS(=O)(=O)C[C@@H](NC(=O)OCCNC(C)=O)C(=O)N[C@@H](Cc1cc(F)cc(F)c1)[C@H](O)CNCc1cccc(CC)c1` showed an IC50 of 27 nM.

In turn, `CCCCS(=O)(=O)C[C@@H](NC(=O)c1ncc[nH]1)C(=O)N[C@@H](Cc1cc(F)cc(F)c1)[C@H](O)CNCc1cccc(CC)c1` showed an IC50 of 4 nM.

Turning to `CCCCS(=O)(=O)C[C@@H](NC(=O)c1cccnc1)C(=O)N[C@@H](Cc1cc(F)cc(F)c1)[C@H](O)CNCc1cccc(CC)c1`, half-maximal inhibition (IC50) required 2 nM.

`CCCCS(=O)(=O)C[C@@H](NC(=O)OCC(F)(F)F)C(=O)N[C@@H](Cc1cc(F)cc(F)c1)[C@H](O)CNCc1cccc(CC)c1` gave a half-inhibitory concentration (IC50) of 4 nM.

`CCCC(CCC)S(=O)(=O)C[C@@H](NC(=O)c1ccccc1C)C(=O)N[C@@H](Cc1cc(F)cc(F)c1)[C@H](O)CNCc1cccc(CC)c1` came in with an IC50 of 15 nM.

As to `CCCC(CCC)S(=O)(=O)C[C@@H](NC(=O)c1cccnc1)C(=O)N[C@@H](Cc1cc(F)cc(F)c1)[C@H](O)CNCc1cccc(CC)c1`, half-maximal inhibition (IC50) required 1 nM.

For the compound `CCCC(CCC)S(=O)(=O)C[C@@H](NC(=O)OCc1cccnc1)C(=O)N[C@@H](Cc1cc(F)cc(F)c1)[C@H](O)CNCc1cccc(CC)c1`, the IC50 turned out to be 4 nM.

In turn, `CCCCS(=O)(=O)CC(NC(=O)OCCC#N)C(=O)N[C@@H](Cc1cc(F)cc(F)c1)[C@H](O)CNCc1cccc(CC)c1` (some centres undefined) returned a concentration for half-maximal inhibition (IC50) of 8 nM.

For the compound `CCCC(CCC)S(=O)(=O)C[C@@H](NC(=O)c1ccc(OC)cc1)C(=O)N[C@@H](Cc1cc(F)cc(F)c1)[C@H](O)CNCc1cccc(CC)c1`, 2 nM corresponded to half-maximal inhibition (IC50).

Take `CCCCS(=O)(=O)C[C@@H](NC(=O)OCc1cccnc1)C(=O)N[C@@H](Cc1cc(F)cc(F)c1)[C@H](O)CNCc1cccc(CC)c1`: half-maximal inhibition (IC50) required 10 nM.

The compound `CCCCS(=O)(=O)C[C@@H](NC(=O)SC1CCOC1)C(=O)N[C@@H](Cc1cc(F)cc(F)c1)[C@H](O)CNCc1cccc(CC)c1` (some centres undefined) showed an IC50 of 15 nM.

Turning to `CCCC(CCC)S(=O)(=O)C[C@@H](NC(=O)OCc1ccncc1)C(=O)N[C@@H](Cc1cc(F)cc(F)c1)[C@H](O)CNCc1cccc(CC)c1`, half-maximal inhibition (IC50) required 3 nM.

As for `CCCC(CCC)S(=O)(=O)C[C@@H](NC(=O)c1ccc(C)cc1)C(=O)N[C@@H](Cc1cc(F)cc(F)c1)[C@H](O)CNCc1cccc(CC)c1`, the IC50 came to 4 nM.

As to `CCCC(CCC)S(=O)(=O)C[C@@H](NC(=O)c1ccc(C(F)(F)F)cc1)C(=O)N[C@@H](Cc1cc(F)cc(F)c1)[C@H](O)CNCc1cccc(CC)c1`, the IC50 was determined as 53 nM.

`CCCC(CCC)S(=O)(=O)C[C@@H](NC(=O)c1cccc(Cl)c1)C(=O)N[C@@H](Cc1cc(F)cc(F)c1)[C@H](O)CNCc1cccc(CC)c1` displayed an IC50 of 5 nM.

Compound `CCCCS(=O)(=O)C[C@@H](NC(=O)c1ccncc1)C(=O)N[C@@H](Cc1cc(F)cc(F)c1)[C@H](O)CNCc1cccc(CC)c1` showed an IC50 of 5 nM.

As to `CCCC(CCC)S(=O)(=O)C[C@@H](NC(=O)c1cccc(O)c1)C(=O)N[C@@H](Cc1cc(F)cc(F)c1)[C@H](O)CNCc1cccc(CC)c1`, the IC50 worked out at 2 nM.

A further assay deals with T1, Beta-secretase 1. In words: Inhibition of BACE expressed in HEK293 cells. Format: cell-based.
For the compound `CCCCS(=O)(=O)C[C@@H](NC(=O)COC)C(=O)N[C@@H](Cc1cc(F)cc(F)c1)[C@H](O)CNCc1cccc(CC)c1`, the EC50 is 4 nM.

Compound `CCCCS(=O)(=O)C[C@@H](NC(=O)OC)C(=O)N[C@@H](Cc1cc(F)cc(F)c1)[C@H](O)CNCc1cccc(CC)c1` returned an EC50 of 2 nM.

As for `CCCC(CCC)S(=O)(=O)C[C@@H](NC(=O)c1ccccc1)C(=O)N[C@@H](Cc1cc(F)cc(F)c1)[C@H](O)CNCc1cccc(CC)c1`, the concentration for a half-maximal effect (EC50) is 14 nM.

On to `CCCCS(=O)(=O)C[C@@H](NC(=O)c1cnccn1)C(=O)N[C@@H](Cc1cc(F)cc(F)c1)[C@H](O)CNCc1cccc(CC)c1`, for which the midpoint of the response, the EC50, lay at 0.2 nM.

With `CCCCS(=O)(=O)C[C@@H](NC(=O)c1cnccc1O)C(=O)N[C@@H](Cc1cc(F)cc(F)c1)[C@H](O)CNCc1cccc(CC)c1`, the EC50 amounted to 24 nM.

Take `CCCCS(=O)(=O)C[C@@H](NC(C)=O)C(=O)N[C@@H](Cc1cc(F)cc(F)c1)[C@H](O)CNCc1cccc(CC)c1`: the EC50 was 6 nM.

Consider `CCCCS(=O)(=O)C[C@@H](NC(=O)OCc1ccncc1)C(=O)N[C@@H](Cc1cc(F)cc(F)c1)[C@H](O)CNCc1cccc(CC)c1`, for which the EC50 is 2 nM.

On to `CCCC(CCC)S(=O)(=O)C[C@@H](NC(=O)OC)C(=O)N[C@@H](Cc1cc(F)cc(F)c1)[C@H](O)CNCc1cccc(CC)c1`, for which the EC50 was determined as 2 nM.

Regarding `CCCCS(=O)(=O)C[C@@H](NC(=O)C1CC1)C(=O)N[C@@H](Cc1cc(F)cc(F)c1)[C@H](O)CNCc1cccc(CC)c1`, the EC50 came to 4 nM.

`CCCCS(=O)(=O)C[C@@H](NC(=O)c1cc(C)n[nH]1)C(=O)N[C@@H](Cc1cc(F)cc(F)c1)[C@H](O)CNCc1cccc(CC)c1` returned a 50% effective concentration (EC50) of 4 nM.

`CCCCS(=O)(=O)C[C@@H](NC(=O)OCCNC(C)=O)C(=O)N[C@@H](Cc1cc(F)cc(F)c1)[C@H](O)CNCc1cccc(CC)c1` displayed an EC50 of 12 nM.

In the case of `CCCCS(=O)(=O)C[C@@H](NC(=O)c1ncc[nH]1)C(=O)N[C@@H](Cc1cc(F)cc(F)c1)[C@H](O)CNCc1cccc(CC)c1`, the response was half-maximal at 4 nM (EC50).

As to `CCCCS(=O)(=O)C[C@@H](NC(=O)c1cccnc1)C(=O)N[C@@H](Cc1cc(F)cc(F)c1)[C@H](O)CNCc1cccc(CC)c1`, the EC50 turned out to be 1 nM.

Take `CCCC(CCC)S(=O)(=O)C[C@@H](NC(=O)c1ccccc1C)C(=O)N[C@@H](Cc1cc(F)cc(F)c1)[C@H](O)CNCc1cccc(CC)c1`: a half-maximal response (EC50) required 59 nM.

The compound `CCCC(CCC)S(=O)(=O)C[C@@H](NC(=O)c1cccnc1)C(=O)N[C@@H](Cc1cc(F)cc(F)c1)[C@H](O)CNCc1cccc(CC)c1` came in with an EC50 of 1 nM.

Turning to `CCCC(CCC)S(=O)(=O)C[C@@H](NC(=O)OCc1cccnc1)C(=O)N[C@@H](Cc1cc(F)cc(F)c1)[C@H](O)CNCc1cccc(CC)c1`, it took 5 nM to reach a half-maximal effect (EC50).

Take `CCCCS(=O)(=O)CC(NC(=O)OCCC#N)C(=O)N[C@@H](Cc1cc(F)cc(F)c1)[C@H](O)CNCc1cccc(CC)c1` (some centres undefined): it took 5 nM to reach a half-maximal effect (EC50).

`CCCC(CCC)S(=O)(=O)C[C@@H](NC(=O)c1ccc(OC)cc1)C(=O)N[C@@H](Cc1cc(F)cc(F)c1)[C@H](O)CNCc1cccc(CC)c1`: the EC50 is 11 nM.

`CCCCS(=O)(=O)C[C@@H](NC(=O)OCc1cccnc1)C(=O)N[C@@H](Cc1cc(F)cc(F)c1)[C@H](O)CNCc1cccc(CC)c1` had a 50% effective concentration (EC50) of 0.6 nM.

In turn, `CCCCS(=O)(=O)C[C@@H](NC(=O)SC1CCOC1)C(=O)N[C@@H](Cc1cc(F)cc(F)c1)[C@H](O)CNCc1cccc(CC)c1` (some centres undefined) had an EC50 of 4 nM.

In the case of `CCCC(CCC)S(=O)(=O)C[C@@H](NC(=O)OCc1ccncc1)C(=O)N[C@@H](Cc1cc(F)cc(F)c1)[C@H](O)CNCc1cccc(CC)c1`, the EC50 was determined as 5 nM.

`CCCC(CCC)S(=O)(=O)C[C@@H](NC(=O)c1ccc(C)cc1)C(=O)N[C@@H](Cc1cc(F)cc(F)c1)[C@H](O)CNCc1cccc(CC)c1` came in with an EC50 of 19 nM.

With `CCCC(CCC)S(=O)(=O)C[C@@H](NC(=O)c1ccc(C(F)(F)F)cc1)C(=O)N[C@@H](Cc1cc(F)cc(F)c1)[C@H](O)CNCc1cccc(CC)c1`, the midpoint of the response, the EC50, lay at 76 nM.

In turn, `CCCC(CCC)S(=O)(=O)C[C@@H](NC(=O)c1cccc(Cl)c1)C(=O)N[C@@H](Cc1cc(F)cc(F)c1)[C@H](O)CNCc1cccc(CC)c1` displayed an EC50 of 48 nM.

In the case of `CCCCS(=O)(=O)C[C@@H](NC(=O)c1ccncc1)C(=O)N[C@@H](Cc1cc(F)cc(F)c1)[C@H](O)CNCc1cccc(CC)c1`, the EC50 was found to be 1 nM.

The compound `CCCC(CCC)S(=O)(=O)C[C@@H](NC(=O)c1cccc(O)c1)C(=O)N[C@@H](Cc1cc(F)cc(F)c1)[C@H](O)CNCc1cccc(CC)c1` came in with an EC50 of 9 nM.
